Columns and labels:
Format in all cases: cell-based
[1] = tested on: HCV subtype 2A replicon in Huh-7 cells; experiment: HCV sub-genomic reporter replicon assay, subtype 2A; details: Hepatitis C virus; Huh-7 cells, HCV subtype 2A replicon; read-out: Replicon 2A EC50
Description: (§1) Compounds were also tested in Huh-7 cells harboring sub-genomic reporter replicons derived from HCV subtypes 1B and 2A (ref.: Stuyver, L. J.; Whitaker, T.; McBrayer, T. R.; Hernandez-Santiago, B. I.; Lostia, S.; Tharnish, P. M.; Ramesh, M.; Chu, C. K.; Jordan, R.; Shi, J. X.; Rachakonda, S.; Watanabe, K. A.; Otto, M. J.; Schinazi, R. F. Antimicrob. Agents Chemother. 2003, 47, 244-254).

MRC-5 = experiment: Cytostatic/cytotoxic MTT assay, MRC-5 fibroblasts; details: Homo sapiens, MRC5; non-malignant fibroblasts, 72 h; read-out: MTT, IC50 MRC-5
Method in brief: (§2)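 72 h exposure, duplicate four-fold dilutions; MTT 1-4 h, SDS solubilisation, A540. IC50 = 50% growth inhibition from dose-response fit. MRC-5 and BJ are non-malignant human fibroblasts.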

CEM-DNR-bulk = experiment: Cytostatic/cytotoxic MTT assay, CEM-DNR-bulk; details: Homo sapiens; daunorubicin resistant subline, 72 h; read-out: MTT, IC50 CEM-DNR-bulk
Method in brief: (§3)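 Human cancer lines, including daunorubicin-resistant CEM-DNR (mrp-1/mdr-1 overexpressing) and paclitaxel-resistant K562-TAX (mdr-1), seeded 25,000-30,000 cells/well, pre-incubated 24 h, then treated in duplicate with four-fold dilutions for 72 h at 37° C, 5% CO2. MTT read-out at 540 nm; IC50 from dose-response curves.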

K562-TAX = experiment: Cytostatic/cytotoxic MTT assay, K562-TAX; details: Homo sapiens, paclitaxel resistant subline, 72 h, read-out: MTT, IC50 K562-TAX
Method in brief: as §3

BJ = experiment: Cytostatic/cytotoxic MTT assay, BJ fibroblasts; details: Homo sapiens, non-malignant fibroblasts, 72 h, read-out: MTT, IC50 BJ
Method in brief: as §2

K562 = experiment: Cytostatic/cytotoxic MTT assay, K562; details: Homo sapiens, K562; 72 h incubation; read-out: MTT, IC50 K562
Method in brief: (§4)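 IC50 values reflect the drug concentration halving cell growth in a 72 h MTT assay. Readings were taken at 540 nm after SDS lysis, using duplicate four-fold dilution series on cells plated a day earlier.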

[2] = tested on: Huh-7 cells harboring replicon 2A; experiment: Cytotoxicity in replicon 2A cells; details: HCV subtype 2A replicon
Description: as §1

A549 = experiment: Cytostatic/cytotoxic MTT assay, A549; details: Homo sapiens, A549; 72 h incubation; read-out: MTT, IC50 A549
Method in brief: as §4

CCRF-CEM = experiment: Cytostatic/cytotoxic MTT assay, CCRF-CEM; details: Homo sapiens, 72 h incubation, read-out: MTT, IC50 CCRF-CEM
Method in brief: as §4

Structure (SMILES)	EC50 [1] [µM]	IC50 (MRC-5) [µM]	IC50 (CEM-DNR-bulk) [µM]	IC50 (K562-TAX) [µM]	IC50 (BJ) [µM]	IC50 (K562) [µM]	CC50 [2] [µM]	IC50 (A549) [µM]	IC50 (CCRF-CEM) [µM]
Cc1ncnc2c1c(-c1ccsc1)cn2[C@@H]1O[C@H](CO)[C@@H](O)[C@H]1O [Compound 5d, 4-Methyl-7-(β-D-ribofuranosyl)-5-(thiophen-3-yl)-7H-pyrrolo[2,3-d]pyrimidine]	> 44	> 100	8.56	5.55	96.9	0.32	> 44	> 20	11.2
COc1ncnc2c1c(-c1ccsc1)cn2[C@@H]1O[C@H](CO)[C@@H](O)[C@H]1O [Compound 1d, 4-Methoxy-7-(β-D-ribofuranosyl)-5-(thiophen-3-yl)-7H-pyrrolo[2,3-d]pyrimidine]	> 44	75.3	7.64	3.45	64.3	0.09	> 44	5.17	2.57
C#Cc1cn([C@@H]2O[C@H](CO)[C@@H](O)[C@H]2O)c2ncnc(C)c12 [Compound 5g, 5-Ethynyl-4-methyl-7-(β-D-ribofuranosyl)-7H-pyrrolo[2,3-d]pyrimidine]	21.6	1.44	0.16	0.11	0.05	6.92	> 44	19.2	5.6
C#Cc1cn([C@@H]2O[C@H](CO)[C@@H](O)[C@H]2O)c2ncnc(NC)c12 [Compound 3g, 5-Ethynyl-4-methylamino-7-(β-D-ribofuranosyl)-7H-pyrrolo[2,3-d]pyrimidine]	> 44	> 100	18.5	1.38	86	> 20	> 44	> 20	> 20
Cc1ncnc2c1c(-c1ccccc1)cn2[C@@H]1O[C@H](CO)[C@@H](O)[C@H]1O [Compound 5e, 4-Methyl-5-phenyl-7-(β-D-ribofuranosyl)-7H-pyrrolo[2,3-d]pyrimidine]	> 44	> 100	> 20	> 20	> 100	> 20	> 44	> 20	> 20
COc1ncnc2c1c(-c1ccco1)cn2[C@@H]1O[C@H](CO)[C@@H](O)[C@H]1O [Compound 1a, 5-(Furan-2-yl)-4-methoxy-7-(β-D-ribofuranosyl)-7H-pyrrolo[2,3-d]pyrimidine]	0.03	1.7	0.16	0.38	0.43	0.06	> 44	0.03	0.02
Cc1ncnc2c1c(-c1ccoc1)cn2[C@@H]1O[C@H](CO)[C@@H](O)[C@H]1O [Compound 5b, 5-(Furan-3-yl)-4-methyl-7-(β-D-ribofuranosyl)-7H-pyrrolo[2,3-d]pyrimidine]	> 44	98.3	> 20	> 20	89.2	> 20	> 44	> 20	> 20
Cc1ncnc2c1c(-c1ccco1)cn2[C@@H]1O[C@H](CO)[C@@H](O)[C@H]1O [Compound 5a, 5-(Furan-2-yl)-4-methyl-7-(β-D-ribofuranosyl)-7H-pyrrolo[2,3-d]pyrimidine]	0.15	0.61	0.07	0.11	0.07	0.04	43.6	0.11	0.04
